In US20250163032A1, “NOVEL MOLECULES AS INHIBITORS OF DNA DAMAGE REPAIR PATHWAY” (VRise Therapeutics, Inc., priority 2023, published 2025):

Legend:
[1] = Metabolic stability, mouse liver microsomes; type: in vitro ADME; settings: pH 7.4, 1 μM test item, 1 mM NADPH, 60 minutes
Description: (§1) Test-8: Metabolic Stability
(§2) Metabolic stability studies were conducted using mouse, rat, and human liver microsomes. The protocol for the studies with mouse and human liver microsomes (Gibco-Thermo) is provided below.
(§3) In brief, 0.25 mg protein was preincubated in phosphate buffer (pH˜7.4) for 5 min at 37° C. and then added with 1 μM test item followed by addition of 1 mM NADPH (cof actor) and incubated further over a period 60 minutes in duplicate. The reaction mixture was terminated with acetonitrile containing an internal standard and centrifuged further to analyse the test item remaining in the supernatant by LC-MS/MS at different intervals. The percent parent compound remaining was calculated in comparison with similar samples terminated at 0 minutes.

USP1/UAF1 = USP1/UAF1 (Homo sapiens, UniProt O94782); assay: USP1/UAF 1 assay (ubiquitin-rhodamine110 fluorometric deubiquitinase assay); type: biochemical; settings: for inhibition at 1 µM: read-out: Biochemical assay % inhibition @1 μM; for IC50: 1 nM USP1/UAF1, 150 nM Ub-Rho, read-out: Biochemical assay IC50
Sequence of USP1/UAF1 (O94782 whole entry): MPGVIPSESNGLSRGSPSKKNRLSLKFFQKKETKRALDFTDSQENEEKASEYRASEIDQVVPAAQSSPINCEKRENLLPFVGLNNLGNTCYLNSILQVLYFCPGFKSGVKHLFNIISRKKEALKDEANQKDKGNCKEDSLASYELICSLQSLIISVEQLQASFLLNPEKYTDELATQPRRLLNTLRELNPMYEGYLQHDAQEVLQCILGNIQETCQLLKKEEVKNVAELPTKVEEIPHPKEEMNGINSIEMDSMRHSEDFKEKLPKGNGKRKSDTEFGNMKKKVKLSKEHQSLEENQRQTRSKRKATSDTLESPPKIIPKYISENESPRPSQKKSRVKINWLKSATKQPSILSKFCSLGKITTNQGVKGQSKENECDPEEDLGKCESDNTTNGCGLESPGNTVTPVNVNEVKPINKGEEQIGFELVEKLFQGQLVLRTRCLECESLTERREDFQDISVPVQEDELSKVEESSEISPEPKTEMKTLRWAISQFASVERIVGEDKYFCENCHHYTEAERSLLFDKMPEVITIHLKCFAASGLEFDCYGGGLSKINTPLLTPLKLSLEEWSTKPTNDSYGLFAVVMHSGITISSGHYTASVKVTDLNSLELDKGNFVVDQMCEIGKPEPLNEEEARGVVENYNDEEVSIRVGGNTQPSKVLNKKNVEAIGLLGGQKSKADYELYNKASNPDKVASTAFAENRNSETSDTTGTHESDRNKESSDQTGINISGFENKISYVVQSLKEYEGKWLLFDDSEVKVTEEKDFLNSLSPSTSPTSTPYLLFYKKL
Sequence of USP1/UAF1 (Q8TAF3 whole entry partner): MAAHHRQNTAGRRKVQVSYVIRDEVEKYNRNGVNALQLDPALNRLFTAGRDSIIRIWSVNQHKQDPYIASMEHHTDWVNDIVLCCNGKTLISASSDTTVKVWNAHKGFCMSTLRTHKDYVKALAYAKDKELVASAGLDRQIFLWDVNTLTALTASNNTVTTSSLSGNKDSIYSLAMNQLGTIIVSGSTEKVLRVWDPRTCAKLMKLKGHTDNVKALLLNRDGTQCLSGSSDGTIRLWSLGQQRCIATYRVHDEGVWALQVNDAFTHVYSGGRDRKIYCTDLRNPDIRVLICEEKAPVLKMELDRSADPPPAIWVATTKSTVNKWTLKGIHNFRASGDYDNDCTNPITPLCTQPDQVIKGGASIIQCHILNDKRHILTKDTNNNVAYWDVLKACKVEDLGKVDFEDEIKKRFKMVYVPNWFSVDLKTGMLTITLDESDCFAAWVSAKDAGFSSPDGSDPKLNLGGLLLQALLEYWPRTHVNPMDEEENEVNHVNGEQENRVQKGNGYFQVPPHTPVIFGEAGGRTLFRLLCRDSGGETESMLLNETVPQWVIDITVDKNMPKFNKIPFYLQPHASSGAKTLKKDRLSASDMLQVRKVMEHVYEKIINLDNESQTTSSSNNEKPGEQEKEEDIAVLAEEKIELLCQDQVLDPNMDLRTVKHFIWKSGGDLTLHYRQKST
Description: Test-1: USP1/UAF 1 Assay:
Deubiquitinase activity of USP1/UAF1 was monitored in a fluorometric assay using ubiquitin-rhodamine110 as substrate. Briefly, enzymatic reactions were conducted in an assay buffer composed of 50 mM HEPES, pH 7.8, 0.5 mM EDTA, 100 mM NaCl, 1 mM TCEP, 0.1 mg/mL BSA, and 0.01% Tween-20 that contained 1 nM USP1/UAF1. Compounds were tested at desired concentrations. The plates were incubated for 15 min to attain equilibrium, and then the enzymatic reaction was initiated by dispensing 150 nM Ub-Rho solution. Fluorescence measurement was performed in a high throughput CCD imager, where kinetic measurements of rhodamine fluorescence were acquired using a 480 nm excitation/540 nm emission filter set. The change in fluorescence intensity over a 5-minute reaction period (typically associated with less than 10% substrate conversion) was normalized against no-inhibitor and no-enzyme controls and the resulting percent inhibition data were fitted to a sigmoidal dose response using a four-parameter Hill equation. Data was be analysed and percent inhibition and/or IC50 for each test compound is calculated accordingly.

[2] = Metabolic stability, human liver microsomes; type: in vitro ADME; settings: pH 7.4, 1 μM test item, 1 mM NADPH, 60 minutes
Description: as §1, §2, §3

MD-MBA-436 = assay: Cell viability assay (CTG assay); type: cell-based, human; settings: 7th day
Description: Test 5: Cell Viability Assay (CTG Assay):
Growth inhibition assays was carried out using […] supplemented media. Cells were seeded at a desired concentration of 1000-6,000 cells/well in a well plate with desired number of wells. Test compounds at a desired concentration range were added after 24 hours. Growth was assessed using the Cell Titer-Glo (CTG, Cell Signaling) for measuring reduction at 7th day after the addition of test compound chemiluminescence values were read by a plate reader. Data was be analysed and percent inhibition and/or IC50 for each test compound is calculated accordingly.

Structure (SMILES)	inhibition at 1 µM (USP1/UAF1) [%]	other results
CC(C)c1ccccc1-c1nc2c(c(OCc3ccc(-c4nc(C(F)(F)F)cn4C(C)C)cc3)n1)CCC2 [Example 13, 4-((4-(1-isopropyl-4-(trifluoromethyl)-1H-imidazol-2-yl)benzyl)oxy)-2-(2-isopropylphenyl)-6,7-dihydro-5H-cyclopenta[d]pyrimidine]	25 to 50	half-life at 1 μM [1]: 9.76 min
CC(C)c1ccccc1-c1nc2c(c(NCc3ccc(-c4nc(C(F)(F)F)cn4C(C)C)cc3)n1)CCC2 [Example 9, N-(4-(1-isopropyl-4-(trifluoromethyl)-1H-imidazol-2-yl)benzyl)-2-(2-isopropylphenyl)-6,7-dihydro-5H-cyclopenta[d]pyrimidin-4-amine]		half-life at 1 μM [2]: 10.5 min; IC50 (USP1/UAF1): < 50 nM
COc1ncnc(C2CC2)c1-c1nc(NCc2ccc(-c3nc(C(F)(F)F)cn3C(C)C)cc2)c2cccn2n1 [Example 22, 2-(4-cyclopropyl-6-methoxypyrimidin-5-yl)-N-(4-(1-isopropyl-4-(trifluoromethyl)-1H-imidazol-2-yl)benzyl)pyrrolo[2,1-f][1,2,4]triazin-4-amine]		IC50 (MD-MBA-436; Homo sapiens): 50 to 100 nM; IC50 (USP1/UAF1): < 50 nM
COc1ncnc(C2CC2)c1-c1nc(NCc2ccc(-c3nc(C(F)(F)F)cn3C)cc2)c2ncn(C3CCCCO3)c2n1 (stereo not shown) [Example 19, 2-(4-cyclopropyl-6-methoxypyrimidin-5-yl)-N-(4-(1-methyl-4-(trifluoromethyl)-1H-imidazol-2-yl)benzyl)-9-(tetrahydro-2H-pyran-2-yl)-9H-purin-6-amine]	50 to 75	inhibition at 10 µM (MD-MBA-436; Homo sapiens, @10 μM): 75 to 100%
CC(C)c1ccccc1-c1nc(NCc2ccc(-c3nc(C(F)(F)F)cn3C)cc2)c2cccn2n1 [Example 5, 2-(2-isopropylphenyl)-N-(4-(1-methyl-4-(trifluoromethyl)-1H-imidazol-2-yl)benzyl)pyrrolo[2,1-f][1,2,4]triazin-4-amine]		IC50 (MD-MBA-436; Homo sapiens): ≥ 1000 nM; IC50 (USP1/UAF1): < 50 nM
COc1cccc(-c2nc(NCc3ccc(-c4nc(C(F)(F)F)cn4C)cc3)c3[nH]cnc3n2)c1F [Example 48, 2-(2-fluoro-3-methoxyphenyl)-N-(4-(1-methyl-4-(trifluoromethyl)-1H-imidazol-2-yl)benzyl)-7H-purin-6-amine]	50 to 75	
Cn1cc(C(F)(F)F)nc1-c1ccc(CNc2nc(-c3ccc(F)c(C#N)c3)nc3nc[nH]c23)cc1 [Example 49, 2-fluoro-5-(6-((4-(1-methyl-4-(trifluoromethyl)-1H-imidazol-2-yl)benzyl)amino)-7H-purin-2-yl)benzonitrile]	50 to 75	
COc1ccc(-c2nc3c(c(NCc4ccc(-c5nc(C(F)(F)F)cn5C)cc4)n2)CCC3)cc1OC [Example 69, 2-(3,4-dimethoxyphenyl)-N-(4-(1-methyl-4-(trifluoromethyl)-1H-imidazol-2-yl)benzyl)-6,7-dihydro-5H-cyclopenta[d]pyrimidin-4-amine]	50 to 75	
COc1cccc(F)c1-c1nc(OCc2ccc(-c3nc(C(F)(F)F)cn3C)cc2)c2ncn(C3CCCCO3)c2n1 (stereo not shown) [Example 27, 2-(2-fluoro-6-methoxyphenyl)-6-((4-(1-methyl-4-(trifluoromethyl)-1H-imidazol-2-yl)benzyl)oxy)-9-(tetrahydro-2H-pyran-2-yl)-9H-purine]		half-life at 1 μM [1]: 122 min
CC(=O)Nc1cccc(-c2nc3c(c(NCc4ccc(-c5nc(C(F)(F)F)cn5C)cc4)n2)CCC3)c1 [Example 59, N-(3-(4-((4-(1-methyl-4-(trifluoromethyl)-1H-imidazol-2-yl)benzyl)amino)-6,7-dihydro-5H-cyclopenta[d]pyrimidin-2-yl)phenyl)acetamide]	50 to 75	
CC(C)n1cc(C(F)(F)F)nc1-c1ccc(CNc2nc(-c3c(OC(F)F)ncnc3C3CC3)nc3c2CCC3)cc1 [Example 11, 2-(4-cyclopropyl-6-(difluoromethoxy)pyrimidin-5-yl)-N-(4-(1-isopropyl-4-(trifluoromethyl)-1H-imidazol-2-yl)benzyl)-6,7-dihydro-5H-cyclopenta[d]pyrimidin-4-amine]		MD-MBA-436 % inhibition@10 μM (MD-MBA-436; @10 μM): A#; half-life at 1 μM [1]: 45.5 min; IC50 (USP1/UAF1): < 50 nM
Cn1cc(C(F)(F)F)nc1-c1ccc(CNc2nc(-c3ccccc3C(F)(F)F)nc3nc[nH]c23)cc1 [Example 45, N-(4-(1-methyl-4-(trifluoromethyl)-1H-imidazol-2-yl)benzyl)-2-(2-(trifluoromethyl)phenyl)-7H-purin-6-amine]	50 to 75	
Cn1cc(C(F)(F)F)nc1-c1ccc(CNc2nc(-c3ccc(F)cc3F)nc3nc[nH]c23)cc1 [Example 40, 2-(2,4-difluorophenyl)-N-(4-(1-methyl-4-(trifluoromethyl)-1H-imidazol-2-yl)benzyl)-7H-purin-6-amine]	50 to 75	
COc1ccc(-c2nc(NCc3ccc(-c4nc(C(F)(F)F)cn4C)cc3)c3[nH]cnc3n2)c(OC)n1 [Example 43, 2-(2,6-dimethoxypyridin-3-yl)-N-(4-(1-methyl-4-(trifluoromethyl)-1H-imidazol-2-yl)benzyl)-7H-purin-6-amine]	50 to 75	
Cn1cc(C(F)(F)F)nc1-c1ccc(CNc2nc(-c3cc(F)cc(F)c3)nc3nc[nH]c23)cc1 [Example 41, 2-(3,5-difluorophenyl)-N-(4-(1-methyl-4-(trifluoromethyl)-1H-imidazol-2-yl)benzyl)-7H-purin-6-amine]	50 to 75	
Cn1cc(C(F)(F)F)nc1-c1ccc(CNc2nc(-c3cccc(OC(F)(F)F)c3)nc3nc[nH]c23)cc1 [Example 46, N-(4-(1-methyl-4-(trifluoromethyl)-1H-imidazol-2-yl)benzyl)-2-(3-(trifluoromethoxy)phenyl)-7H-purin-6-amine]	50 to 75	
COc1ccc(-c2nc3c(c(NCc4ccc(-c5nc(C(F)(F)F)cn5C)cc4)n2)CCC3)c(OC)c1 [Example 68, 2-(2,4-dimethoxyphenyl)-N-(4-(1-methyl-4-(trifluoromethyl)-1H-imidazol-2-yl)benzyl)-6,7-dihydro-5H-cyclopenta[d]pyrimidin-4-amine]	50 to 75	
Cn1cc(C(F)(F)F)nc1-c1ccc(CNc2nc(-c3cc(Cl)ccc3F)nc3c2CCC3)cc1 [Example 61, 2-(5-chloro-2-fluorophenyl)-N-(4-(1-methyl-4-(trifluoromethyl)-1H-imidazol-2-yl)benzyl)-6,7-dihydro-5H-cyclopenta[d]pyrimidin-4-amine]	50 to 75	
Cn1cc(C(F)(F)F)nc1-c1ccc(CNc2nc(-c3ccc(C(F)(F)F)cc3)nc3nc[nH]c23)cc1 [Example 57, N-(4-(1-methyl-4-(trifluoromethyl)-1H-imidazol-2-yl)benzyl)-2-(4-(trifluoromethyl)phenyl)-7H-purin-6-amine]	50 to 75	
Cn1cc(C(F)(F)F)nc1-c1ccc(CNc2nc(-c3ccc(-c4ccccc4)cc3)nc3c2CCC3)cc1 [Example 64, 2-([1,1′-biphenyl]-4-yl)-N-(4-(1-methyl-4-(trifluoromethyl)-1H-imidazol-2-yl)benzyl)-6,7-dihydro-5H-cyclopenta[d]pyrimidin-4-amine]	25 to 50	
Cn1cc(C(F)(F)F)nc1-c1ccc(CNc2nc(-c3cccc(C(F)(F)F)c3)nc3nc[nH]c23)cc1 [Example 58, N-(4-(1-methyl-4-(trifluoromethyl)-1H-imidazol-2-yl)benzyl)-2-(3-(trifluoromethyl)phenyl)-7H-purin-6-amine]	50 to 75	
CSc1ccc(-c2nc(NCc3ccc(-c4nc(C(F)(F)F)cn4C)cc3)c3[nH]cnc3n2)cc1 [Example 56, N-(4-(1-methyl-4-(trifluoromethyl)-1H-imidazol-2-yl)benzyl)-2-(4-(methylthio)phenyl)-7H-purin-6-amine]	50 to 75	
Cn1cc(C(F)(F)F)nc1-c1ccc(CNc2nc(-c3cc(F)cc(F)c3F)nc3c2CCC3)cc1 [Example 74, N-(4-(1-methyl-4-(trifluoromethyl)-1H-imidazol-2-yl)benzyl)-2-(2,3,5-trifluorophenyl)-6,7-dihydro-5H-cyclopenta[d]pyrimidin-4-amine]	50 to 75	
COc1ccc(OC)c(-c2nc3c(c(NCc4ccc(-c5nc(C(F)(F)F)cn5C)cc4)n2)CCC3)c1 [Example 66, 2-(2,5-dimethoxyphenyl)-N-(4-(1-methyl-4-(trifluoromethyl)-1H-imidazol-2-yl)benzyl)-6,7-dihydro-5H-cyclopenta[d]pyrimidin-4-amine]	50 to 75	
